Source: patent publication US9622495B2, “Methods to decontaminate cereal grains with chlorine dioxide” (Diversey, Inc., priority 2011, dated 2017)
“And” between values parts separate entries of the source, which are not always exact repeats. Equal entries are not always repeated.

What was measured:
Fusarium [1] = test: Treatment of barley artificially contaminated with Fusarium with chlorine dioxide solutions (test tube, plate count); type: cell-based
Protocol: The performance of chlorine dioxide was investigated to reduce initial Fusarium load on barley. Prior to treatment with chlorine dioxide, barley samples were artificially contaminated with cells of Fusarium by spraying and drying.
Methods. Chlorine dioxide solutions were generated using Diversey's ClearKlens Bi-Spore Set (Base VH26 and Activator VH 26). Fresh stock solutions were prepared following product use instructions. Concentrations of chlorine dioxide in stock and use solutions were determined with a Dr. Lange test-kit (LCK 310/343) and photometric DR 2800 device. Chlorine dioxide use solutions were prepared diluting the Bi-Spore stock solution with aid of CEN hard water diluent (300 mg/kg CaCO3). The neutralizing solution was based on sodium thiosulfate (5 g/L in ¼ strength Ringer solution). Experiments were carried out at ambient temperature and no soil on the basis of EN 1276. Chlorine dioxide use solutions for testing were determined to be 1 ppm and 10 ppm.
Test runs were conducted as follows. In a test tube, chlorine dioxide solution (10 ml) was added to barley (1 g) and the start time of the experiment was recorded. Barley and chlorine dioxide were mixed by vortexing for 10 seconds and then allowed to react for one hour. After treating the barley with chlorine dioxide solution for one hour, the solution was decanted. Shortly thereafter, a subsequent treatment for either 60 or 300 min with a fresh solution containing either 1 ppm ClO2 or 10 ppm ClO2 was performed. After completion of the second treatment, a portion of the mixture (1 mL) was pipetted into 9 ml of neutralizer and mixed. After 5 minutes reaction time, 1 mL of the neutralized solution was added to 9 mL Ringer diluent. A dilution series was prepared up to 1:10,000. From each dilution step, 1 mL (in duplicate) was plated on potato dextrose agar. Plates were incubated at 30° C. for 62 hours. Grown colonies on plates were counted and expressed at CFU per gram barley. A control experiment using Ringer solution instead of chlorine dioxide was performed following the same procedure.

Fusarium [2] = test: Fusarium counts on barley, chlorine dioxide in second steeping, pilot steeping chamber (Example 2); type: cell-based
Protocol: (§1) Test protocol. Harvested barley from a high load Fusarium batch was provided by Czech Malt and Brew Institute. A starting probe (parallel) was taken to determine initial cell load on barley with Fusarium. Barley (1 g) was whirled in Ringer-solution (10 ml) to detach cells. After thorough whirling ten-fold dilutions steps in sterile Ringer-solution were prepared. 1 ml sample in parallel from dilution steps 10^−4, 10^−5 and 10^−6 were poured with sterile potato agar medium. Chlorine dioxide treated barley was prior to dilution series once washed with Ringer-solution to remove residual Chlorine dioxide. Plates were transferred into a temperature-controlled (30° C.) incubation box and grown for 3-5 days until colony formation was observed. Colonies were counted and calculated to CFU/g. Boxes with barley were placed into a steeping/germination box. The chamber was filled with town tap water for the first steeping and to remove dust and dirt. With help of Dulcotest DT1 photometer (Prominent), the free chlorine in tap water was determined to be 0.17 ppm. The first steeping was performed for 5 hours at about 14.5° C. During this time the water content in exposed barley increased up to 31.8%. After the first steeping residual water was drained. A second (parallel) barley sample was taken to determine the Fusarium load. The steeped barley was then exposed to air until next morning (approximately 16 hours), and a third (parallel) barley sample was taken to determine Fusarium load.
(§2) The second steeping was performed using an aqueous solution of chlorine dioxide. The aqueous solution was made of Diversey Bi-Spore as described in Example 1. The chlorine dioxide steeping solution was prepared from stock by diluting with town tap water. The chlorine dioxide concentration of the steeping solution was determined to be 12 ppm.
(§3) Four boxes with 0.5 kg barley each were placed into a plastic container, which then was filled with 11 L of above mentioned chlorine dioxide steeping solution. The plastic container was transferred into the steeping/germination chamber and left for another 4 hour steeping period. The chlorine dioxide concentration was periodically monitored using Dr. Lange test-kits (LCK 310/343) and DR 2800 device. (Parallel) Barley samples were taken to determine residual cell load of Fusarium after the chlorine dioxide steeping.
After second steeping with chlorine dioxide, the boxes were exposed to air in the closed chamber for another 20 hour period. The water level was determined to 38.1% and then adjusted to final 45.5% after a third steeping with tap water for a period of 2.5 hours. A final parallel barley sample was taken to determine residual cell load with Fusarium prior to germination. Treated barley then was further processed according to a quality parameter protocol of the Malting Institute.

[3] = Chlorine dioxide concentration in the steeping solution during steeping; type: physicochemical; details: for ClO2 concentration in the steeping solution: Example 2, second steeping
Protocol: as §2, §3
(§4) A comparison test with a batch of barley treated with chlorine dioxide in second steeping versus a control using tap water only was carried out following the procedure described in Example 2. The chlorine dioxide in the second steeping solution was determined as initial 11 ppm and dropped to 8 ppm at the end of steeping (4 hour in total, data not shown). The effect on reduction of Fusarium counts were determined.

Fusarium [4] = test: Fusarium counts on barley, chlorine dioxide in second steeping versus tap water blank (Example 3); type: cell-based
Protocol: as §1, §4

[5] = tested on: Fusarium mycotoxins (deoxynivalenol, zearalenon) and deoxynivalenol-3-glucoside; test: Mycotoxin content of barley by LC-MS/MS
Protocol: The barley was also analyzed for representative mycotoxin content as follows. The high-performance liquid chromatography with mass detection (LC-MS/MS) was used for the determination of the selected Fusarium mycotoxins (deoxynivalenol, zearalenon) and deoxynivalenol-3-glucoside in brewing raw materials. After extraction, the homogenized samples were filtered and purified on the SPE column or immunoaffinity column. Subsequently, they were concentrated using a vacuum evaporator, transferred to aqueous methanol and analyzed with the LC-MS/MS.

Fusarium [6] = test: Industrial-scale treatment of barley with chlorine dioxide (about 10 ppm) in second steeping, Fusarium counts; type: cell-based; details: in words
Protocol: Two independent comparison tests with batches of barley treated with chlorine dioxide in a second steeping, versus control steepings using tap water only, were carried out at industrial scale at an industrial malting site following the procedure described in Example 2. Each batch included about 56 m^3 of barley, the ratio of aqueous chlorine dioxide to barley was about 1:1, and chlorine dioxide (about 10 ppm) was added during second steeping. There was no further dosage of ClO2 during the subsequent germination phase. The effect on reduction of Fusarium counts at industrial-scale were determined at distinct phases: after a first air break, after the second steeping, and during the green malt stage (after barley germination).

Fusarium [7] = test: Industrial-scale spraying of barley with aqueous chlorine dioxide (20 ppm) during germination, Fusarium counts; type: cell-based; details: for Log N Fusarium counts: sprayed with aqueous ClO2 (20 ppm) during germination, samples 11B, 12B
Protocol: Comparison tests were conducted with two batches of barley at the same industrial malting site of Example 5, to determine the effect of ClO2 upon Fusarium counts where the barley is sprayed with aqueous ClO2 (20 ppm) during germination. Both batches were treated with tap water during the steeping stage. Batches 11A and 12A were also sprayed with tap water during germination, whereas batches 11B and 12B were sprayed with aqueous ClO2 (20 ppm) during germination. Each batch of barley weighed approximately 56 metric tons when dry and absorbed approximately 40-50% water by weight during the steeping and germination steps. For example, the barley typically absorbed about 41-42% water during steeping. During germination water content in the barley further increased to about 45-46%. During germination, the steeped batch of barley was sprayed with about 8.8 m^3 aqueous chlorine dioxide (20 ppm) solution (i.e., about 0.15 m^3 aqueous chlorine dioxide solution per metric ton of dry grain).

Fusarium [8] = test: Fusarium counts on barley, chlorine dioxide in second steeping, pilot steeping chamber (Example 2); type: cell-based; remark: listed apart in the source
[9] = 10 ppm + 1 ppm ClO2, contact time 60 min + 60 min
[10] = 10 ppm + 1 ppm ClO2, contact time 60 min + 300 min
[11] = 10 ppm + 10 ppm (2nd steep) ClO2, contact time 60 min + 60 min
[12] = 10 ppm + 10 ppm (2nd steep) ClO2, contact time 60 min + 300 min
[13] = ClO2-treated batch, after third steeping with tap water
[14] = ClO2-treated batch, after third steeping with tap water, second sample
[15] = after second steeping with ClO2 (4 hours), 12 ppm
[16] = after second steeping with ClO2 (4 hours), 12 ppm, second sample
[17] = second steeping step with chlorine dioxide
[18] = after 2nd steeping with ClO2 (4 hours)
[19] = Bojos barley after steeping with chlorine dioxide

[O][Cl+][O-] [ClO2, chlorine dioxide]
CFU/g after treatment (Fusarium [1]; [9]): 3.3 × 10^6 CFU/g
R (log batch control − log batch ClO2), reduction in viability (Fusarium [1]; [9]): 1.06
CFU/g after treatment (Fusarium [1]; [10]): 1.3 × 10^7 CFU/g
R (log batch control − log batch ClO2), reduction in viability (Fusarium [1]; [10]): 0.47
CFU/g after treatment (Fusarium [1]; [11]): 1.1 × 10^4 CFU/g
R (log batch control − log batch ClO2), reduction in viability (Fusarium [1]; [11]): 3.58
CFU/g after treatment (Fusarium [1]; [12]): 5 × 10^3 CFU/g
R (log batch control − log batch ClO2), reduction in viability (Fusarium [1]; [12]): 3.88
Fusarium counts on barley compared to a control without chlorine dioxide (Fusarium [1]; Example 1, in words): clear reduction
Fusarium counts, Mean value (CFU/g) (Fusarium [2]; [13]): 2.47 × 10^5 CFU/g
Fusarium counts, Sample 1 (CFU/g) (Fusarium [2]; [13]): 2.47 × 10^5 CFU/g
Fusarium counts, Sample 1 (CFU/g) (Fusarium [2]; [14]): 2.47 × 10^5 CFU/g
Fusarium counts, Mean value (CFU/g) (Fusarium [2]; [15]): 5.16 × 10^4 CFU/g
Fusarium counts, Sample 1 (CFU/g) (Fusarium [2]; [15]): 5.23 × 10^4 CFU/g
Fusarium counts, Sample 1 (CFU/g) (Fusarium [2]; [16]): 5.09 × 10^4 CFU/g
Fusarium in malted barley produced from the treated batch (Fusarium [2]; malted barley, data not shown): free from Fusarium
Reduction of Fusarium numbers on barley (%) (Fusarium [2]; [17]): 94.15%
Reduction of Fusarium numbers on barley (log) (Fusarium [2]; [17]): 1.24 log
ClO2 concentration in the steeping solution ([3]; time 0 min): 12.2 mg/L
ClO2 concentration in the steeping solution ([3]; time 80 min): 11.8 mg/L
ClO2 concentration in the steeping solution ([3]; time 140 min): 7.4 mg/L
ClO2 concentration in the steeping solution ([3]; time 190 min): 9.5 mg/L
ClO2 concentration in the steeping solution ([3]; time 240 min): 6.4 mg/L
Chlorine dioxide in the second steeping solution, end of steeping ([3]; Example 3, end of steeping (4 hour in total)): 8 ppm
Chlorine dioxide in the second steeping solution, initial ([3]; Example 3, start of steeping): 11 ppm
% reduction vs. untreated control (Fusarium [4]; after 2nd aeration (20 hours)): 93.09%
Fusarium counts, treated with ClO2, mean value (CFU/g) (Fusarium [4]; after 2nd aeration (20 hours)): 4.41 × 10^3 CFU/g
Fusarium counts, treated with ClO2, sample 1 (CFU/g) (Fusarium [4]; after 2nd aeration (20 hours)): 4.69 × 10^3 CFU/g
Fusarium counts, treated with ClO2, sample 2 (CFU/g) (Fusarium [4]; after 2nd aeration (20 hours)): 4.13 × 10^3 CFU/g
log reduction vs. untreated control (Fusarium [4]; after 2nd aeration (20 hours)): 1.17
% reduction vs. untreated control (Fusarium [4]; [18]): 93.44%
Fusarium counts, treated with ClO2, mean value (CFU/g) (Fusarium [4]; [18]): 4.56 × 10^3 CFU/g
Fusarium counts, treated with ClO2, sample 1 (CFU/g) (Fusarium [4]; [18]): 4.37 × 10^3 CFU/g
Fusarium counts, treated with ClO2, sample 2 (CFU/g) (Fusarium [4]; [18]): 4.75 × 10^3 CFU/g
log reduction vs. untreated control (Fusarium [4]; [18]): 1.18
% reduction vs. untreated control (Fusarium [4]; after 3rd steeping): 92.59%
Fusarium counts, treated with ClO2, mean value (CFU/g) (Fusarium [4]; after 3rd steeping): 3.14 × 10^3 CFU/g
Fusarium counts, treated with ClO2, sample 1 (CFU/g) (Fusarium [4]; after 3rd steeping): 3.12 × 10^3 CFU/g
Fusarium counts, treated with ClO2, sample 2 (CFU/g) (Fusarium [4]; after 3rd steeping): 3.15 × 10^3 CFU/g
log reduction vs. untreated control (Fusarium [4]; after 3rd steeping): 1.13
Fusarium counts compared to the control steeped with tap water only (Fusarium [4]; chlorine dioxide in second steeping, in words): significantly lower
DON concentration on barley [5, 19]: 450.4 µg/kg
DON_3_Glc concentration on barley [5, 19]: 751 µg/kg
ZON concentration on barley [5, 19]: 12.1 µg/kg
DON ([5]; Bojos barley steeped with chlorine dioxide, Table 7): 450.4 µg/kg
Mycotoxin concentration of DON and DON_3_Glc on barley compared to initial load of untreated barley or barley steeped with water only ([5]; in words): significantly lower
ZON level compared to tap water only ([5]; in words): significantly less
Level of ZON after steeping compared to initial load ([5]; in words, independently of whether water or chlorine dioxide was used): increased
Fusarium counts compared to control batches steeped with tap water (Fusarium [6]): significantly lower
Fusarium counts on barley compared to control batch sprayed with tap water (Fusarium [7]; industrial scale, sprayed during germination, in words): significantly lower
Log N Fusarium counts (Fusarium [7]; Day 1): 5.9 and 5.8
Log N Fusarium counts (Fusarium [7]; Day 2): 5.2
Log N Fusarium counts (Fusarium [7]; Day 3): 5.2
Log N Fusarium counts (Fusarium [7]; Day 4): 4.3
Log N Fusarium counts (Fusarium [7]; Day 5): 4.1 and 4.0
Fusarium counts, Mean value (CFU/grain) (Fusarium [8]; [13]): 1.98 × 10^4 CFU/grain
Fusarium counts, Sample 1 (CFU/grain) (Fusarium [8]; [13]): 1.90 × 10^4 CFU/grain
Fusarium counts, Sample 1 (CFU/grain) (Fusarium [8]; [14]): 2.06 × 10^4 CFU/grain
Fusarium counts, Mean value (CFU/grain) (Fusarium [8]; [15]): 3.69 × 10^3 CFU/grain
Fusarium counts, Sample 1 (CFU/grain) (Fusarium [8]; [15]): 3.74 × 10^3 CFU/grain
Fusarium counts, Sample 1 (CFU/grain) (Fusarium [8]; [16]): 3.64 × 10^3 CFU/grain
